In this assay the test system is ISC-enriched organoids. In words: Primary screen, 384-well 2.5-D organoid differentiation (ENR+CD, 6 days, Target Selective Inhibitor Library, vs whole-plate median): ATP (CellTiter-Glo 3D, CTG). (ATP-based viability assays read luminescence as a measure of living cells.)

Data on 33 compounds can be found in patent US20230398130A1, “METHODS AND COMPOSITIONS FOR DIFFERENTIATING STEM CELLS” (Massachusetts Institute of Technology, priority 2020, published 2023).

Structures can show the parent of a compound that is named as a salt.

Regarding `Cc1c(C(=O)NN2CCCCC2)nn(-c2ccc(Cl)cc2Cl)c1-c1ccc(Cl)cc1` [Rimonabant], the “Z.CTG (standard z score)” value (Dose 0.08 uM, primary screen) came to 0.611; the “Z.CTG (standard z score)” value (Dose 0.40 uM, primary screen) was found to be 0.492; the “Z.CTG (standard z score)” value (Dose 2.00 uM, primary screen) came to 0.561; the “Z.CTG (standard z score)” value (Dose 10.00 uM, primary screen) amounted to 0.152.
The corresponding values for `O=C(NC[C@H]1CN(c2ccc(N3CCOCC3=O)cc2)C(=O)O1)c1ccc(Cl)s1` [Rivaroxaban] are 0.050, 0.466, 0.123 and 0.104.
Turning to `CN(C)CCc1c[nH]c2ccc(Cn3cncn3)cc12` [Rizatriptan Benzoate], the “Z.CTG (standard z score)” value is, setting by setting: (Dose 0.08 uM, primary screen) 0.512; (Dose 0.40 uM, primary screen) 0.260; (Dose 2.00 uM, primary screen) 0.302; (Dose 10.00 uM, primary screen) −0.129.
Regarding `COc1cc2c(cc1OC)[C@@H]1Cc3ccc(OC)c(OC)c3CN1CC2` [Rotundine], the “Z.CTG (standard z score)” value was 0.857 (Dose 0.08 uM, primary screen); 0.818 (Dose 0.40 uM, primary screen); 0.454 (Dose 2.00 uM, primary screen); 0.543 (Dose 10.00 uM, primary screen).
For `CC(=O)OCC(=O)NCCCOc1cccc(CN2CCCCC2)c1` [Roxatidine Acetate HCl], the “Z.CTG (standard z score)” value is listed as −0.095 (Dose 0.08 uM, primary screen); 0.050 (Dose 0.40 uM, primary screen); −0.245 (Dose 2.00 uM, primary screen); −0.564 (Dose 10.00 uM, primary screen).
On the same counts, the results for `CC(C)N(CCCNC(=O)Nc1ccc(C(C)(C)C)cc1)C[C@H]1O[C@@H](n2cc(Br)c3c(N)ncnc32)[C@H](O)[C@@H]1O` [SGC0946] are 0.124, −0.290, −0.197 and −0.340.
For `Oc1c2ccccc2c2c3c(cccc13)N=N2` [SP600125], the “Z.CTG (standard z score)” value was 0.471 (Dose 0.08 uM, primary screen); 0.347 (Dose 0.40 uM, primary screen); 0.246 (Dose 2.00 uM, primary screen); −0.047 (Dose 10.00 uM, primary screen).
On the same counts, the results for `Cc1[nH]c(/C=C2\C(=O)Nc3ccc(S(=O)(=O)N(C)c4cccc(Cl)c4)cc32)c(C)c1C(=O)N1CCN(C)CC1` [SU11274] are 0.852, 0.645, 0.139 and −1.954.
On the same counts, the results for `CN[C@H]1CC[C@@H](c2ccc(Cl)c(Cl)c2)c2ccccc21` [Sertraline HCl] are −0.189, 0.208, 0.157 and 0.104.
The corresponding values for `CC(NC(=O)c1ccccc1/N=C/c1c(O)ccc2ccccc12)c1ccccc1` (stereo not drawn) [Sirtinol] are −0.520, 0.022, −0.287 and −0.186.
Consider `Cc1cc2c(cc1CC(=O)c1sccc1S(=O)(=O)Nc1onc(C)c1Cl)OCO2` [Sitaxentan sodium], for which the “Z.CTG (standard z score)” value was 0.226 (Dose 0.08 uM, primary screen); −0.478 (Dose 0.40 uM, primary screen); −0.230 (Dose 2.00 uM, primary screen); −0.240 (Dose 10.00 uM, primary screen).
For `CN1CCN(c2nc(C3=C(c4c[nH]c5ccccc45)C(=O)NC3=O)c3ccccc3n2)CC1` [Sotrastaurin], the “Z.CTG (standard z score)” value is, setting by setting: (Dose 0.08 uM, primary screen) 0.024; (Dose 0.40 uM, primary screen) −0.286; (Dose 2.00 uM, primary screen) −0.650; (Dose 10.00 uM, primary screen) −0.578.
With `O=S(=O)(c1ccccc1)N(CC(F)(F)F)c1ccc(C(O)(C(F)(F)F)C(F)(F)F)cc1` [T0901317], the “Z.CTG (standard z score)” value (Dose 0.08 uM, primary screen) stood at 0.112; the “Z.CTG (standard z score)” value (Dose 0.40 uM, primary screen) stood at 0.426; the “Z.CTG (standard z score)” value (Dose 2.00 uM, primary screen) came out at 0.228; the “Z.CTG (standard z score)” value (Dose 10.00 uM, primary screen) is listed as 0.272.
Consider `Cc1cc(OCCCS(C)(=O)=O)cc(C)c1-c1cccc(COc2ccc3c(c2)OC[C@H]3CC(=O)O)c1` [TAK-875], for which the “Z.CTG (standard z score)” value is, setting by setting: (Dose 0.08 uM, primary screen) 0.572; (Dose 0.40 uM, primary screen) −0.392; (Dose 2.00 uM, primary screen) −0.376; (Dose 10.00 uM, primary screen) −0.694.
As for `CN1CC(=O)N2[C@H](c3ccc4c(c3)OCO4)c3[nH]c4ccccc4c3C[C@@H]2C1=O` [Tadalafil], the “Z.CTG (standard z score)” value (Dose 0.08 uM, primary screen) is on record as −0.046; the “Z.CTG (standard z score)” value (Dose 0.40 uM, primary screen) was 0.863; the “Z.CTG (standard z score)” value (Dose 2.00 uM, primary screen) was 1.042; the “Z.CTG (standard z score)” value (Dose 10.00 uM, primary screen) was 0.644.
The corresponding values for `COc1cc2c(cc1OC)CN(CCc1ccc(NC(=O)c3cc(OC)c(OC)cc3NC(=O)c3cnc4ccccc4c3)cc1)CC2` [Tariquidar] are −0.280, 0.128, 0.899 and 0.543.
With `CCCc1nc2c(C)cc(-c3nc4ccccc4n3C)cc2n1Cc1ccc(-c2ccccc2C(=O)O)cc1` [Telmisartan], the “Z.CTG (standard z score)” value by setting is: (Dose 0.08 uM, primary screen) 0.320; (Dose 0.40 uM, primary screen) 0.584; (Dose 2.00 uM, primary screen) 0.153; (Dose 10.00 uM, primary screen) 0.549.
Turning to `CC(C)OC(=O)OCOP(=O)(CO[C@H](C)Cn1cnc2c(N)ncnc21)OCOC(=O)OC(C)C` [Tenofovir Disoproxil Fumarate], the “Z.CTG (standard z score)” value runs as follows: (dose 0.08 uM) 0.172; (dose 0.40 uM) −0.004; (dose 2.00 uM) −0.378; (dose 10.00 uM) −1.034.
Take `CCCSc1nc(N[C@@H]2C[C@H]2c2ccc(F)c(F)c2)c2nnn([C@@H]3C[C@H](OCCO)[C@@H](O)[C@H]3O)c2n1` [Ticagrelor]: the “Z.CTG (standard z score)” value reads like this: (dose 0.08 uM) −0.190; (dose 0.40 uM) −0.069; (dose 2.00 uM) −0.645; (dose 10.00 uM) −0.576.
On to `Clc1ccccc1CN1CCc2sccc2C1` [Ticlopidine HCl], for which the “Z.CTG (standard z score)” value by setting is: (dose 0.08 uM) −0.281; (dose 0.40 uM) −0.097; (dose 2.00 uM) −0.559; (dose 10.00 uM) −0.013.
The corresponding values for `O=c1oc2cc(O)ccc2s1` [Tioxolone] are 0.586, 0.212, 0.105 and 0.783.
In the case of `c1ccc(CC2=NCCN2)cc1` [Tolazoline HCl], the “Z.CTG (standard z score)” value is, setting by setting: (dose 0.08 uM) 0.585; (dose 0.40 uM) 0.530; (dose 2.00 uM) −0.122; (dose 10.00 uM) −0.496.
Regarding `Cc1c(Cl)cccc1Nc1ccccc1C(=O)O` [Tolfenamic Acid], the “Z.CTG (standard z score)” value by setting is: (dose 0.08 uM) 0.467; (dose 0.40 uM) −0.007; (dose 2.00 uM) −0.379; (dose 10.00 uM) −0.276.
Regarding `Cc1ccccc1C(=O)Nc1ccc(C(=O)N2CCCC(O)c3cc(Cl)ccc32)c(C)c1` (stereo not drawn) [Tolvaptan], the “Z.CTG (standard z score)” value is, setting by setting: (dose 0.08 uM) 0.227; (dose 0.40 uM) −0.019; (dose 2.00 uM) −0.225; (dose 10.00 uM) −0.249.
`CCOC(=O)N1c2ccc(C(F)(F)F)cc2[C@@H](N(Cc2cc(C(F)(F)F)cc(C(F)(F)F)c2)C(=O)OC)C[C@H]1CC` [Torcetrapib]: the “Z.CTG (standard z score)” value reads like this: (dose 0.08 uM) 0.677; (dose 0.40 uM) 0.147; (dose 2.00 uM) −0.289; (dose 10.00 uM) −0.360.
For the compound `CN(C)CCOc1ccc(/C(=C(/CCCl)c2ccccc2)c2ccccc2)cc1` [Toremifene Citrate], the “Z.CTG (standard z score)” value runs as follows: (dose 0.08 uM) 0.822; (dose 0.40 uM) 0.285; (dose 2.00 uM) −2.417; (dose 10.00 uM) −3.335.
On the same counts, the results for `Cn1c(=O)cc(N2CCC[C@@H](N)C2)n(Cc2cc(F)ccc2C#N)c1=O` [Trelagliptin] are 0.482, −0.181, 0.120 and 0.322.
Turning to `Nc1nc(N)c2nc(-c3ccccc3)c(N)nc2n1` [Triamterene], the “Z.CTG (standard z score)” value by setting is: (dose 0.08 uM) −0.070; (dose 0.40 uM) −0.394; (dose 2.00 uM) −0.241; (dose 10.00 uM) −1.103.
For the compound `CCC(COC(=O)c1cc(OC)c(OC)c(OC)c1)(c1ccccc1)N(C)C` (stereo not drawn) [Trimebutine], the “Z.CTG (standard z score)” value (dose 0.08 uM) amounted to 0.017, the “Z.CTG (standard z score)” value (dose 0.40 uM) is given as −0.483, the “Z.CTG (standard z score)” value (dose 2.00 uM) is recorded as −2.409 and the “Z.CTG (standard z score)” value (dose 10.00 uM) is recorded as −2.545.
With `CNCc1ccc(-c2cc(-c3nc(-c4ccc(S(=O)(=O)C(C)C)cc4)cnc3N)on2)cc1` [VE-822], the “Z.CTG (standard z score)” value was −0.351 (dose 0.08 uM), −0.685 (dose 0.40 uM), −1.713 (dose 2.00 uM) and −4.212 (dose 10.00 uM).
In the case of `O=c1ncn2nc(Sc3ccc(F)cc3F)ccc2c1-c1c(Cl)cccc1Cl` [VX-745], the “Z.CTG (standard z score)” value reads like this: (dose 0.08 uM) 0.445; (dose 0.40 uM) 0.349; (dose 2.00 uM) 0.044; (dose 10.00 uM) 0.053.
On to `CCO[C@@H]1OC(=O)C[C@@H]1NC(=O)[C@@H]1CCCN1C(=O)[C@@H](NC(=O)c1ccc(N)c(Cl)c1)C(C)(C)C` [VX-765], for which the “Z.CTG (standard z score)” value by setting is: (dose 0.08 uM) 0.368; (dose 0.40 uM) 0.555; (dose 2.00 uM) 0.393; (dose 10.00 uM) 0.608.
`C[C@@H](c1ncncc1F)[C@](O)(Cn1cncn1)c1ccc(F)cc1F` [Voriconazole]: the “Z.CTG (standard z score)” value is, setting by setting: (dose 0.08 uM) 0.617; (dose 0.40 uM) 0.730; (dose 2.00 uM) 0.680; (dose 10.00 uM) 0.783.
